The results in this text go back to PubChem BioAssay (NCI).

Structures are written as SMILES.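 The compound was tested at five concentrations on cells cultured in 96-well plates, with a 48-hour exposure period. Abbreviation: GI50, concentration required for 50% inhibition of growth. Definition used: TGI = concentration required for complete inhibition of growth.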

Among the test systems are HL-60(TB) leukemia; LOX IMVI melanoma; M14 melanoma; MDA-MB-435; MOLT-4 leukemia; PC-3 prostate; SK-MEL-2 melanoma; T-47D breast; HT29 colon; KM12 colon.
What all share (assay): inhibition of tumour cell growth, NCI panel, 48 h

Consider `CCC1CCc2nc3sc(C(=O)Nc4cccc(F)c4)c(N)c3cc2C1` (stereo not given), for which the GI50 is 0.343 µM in the assay with HL-60(TB) leukemia; above 100 µM with LOX IMVI melanoma; 0.402 µM with M14 melanoma; 0.11 µM in the assay on MDA-MB-435; 39.8 µM with MOLT-4 leukemia; above 100 µM with PC-3 prostate. Further, the GI50 in the assay with SK-MEL-2 melanoma and in the assay on T-47D breast was above 100 µM throughout. Moreover, the TGI was above 100 µM in the assay with HL-60(TB) leukemia; above 100 µM in the assay with LOX IMVI melanoma; above 100 µM in the assay on M14 melanoma; 0.616 µM with MDA-MB-435; above 100 µM in the assay on MOLT-4 leukemia; above 100 µM in the assay with PC-3 prostate. In addition, the TGI with SK-MEL-2 melanoma and in the assay with T-47D breast was above 100 µM in each case.
With `O=[N+]([O-])c1c(Br)sc(Br)c1[N+](=O)[O-]`, the GI50 with HL-60(TB) leukemia was 2.4 µM; in the assay with HT29 colon, 1.7 µM; in the assay with KM12 colon, 10.1 µM; in the assay with LOX IMVI melanoma, 1.58 µM; with MDA-MB-435, 2 µM; in the assay on MOLT-4 leukemia, 1.01 µM. Moreover, the figures for the GI50 in the assay with PC-3 prostate, in the assay with SK-MEL-2 melanoma and in the assay on T-47D breast were 1.94 µM, 2.79 µM and 1.84 µM, respectively. In addition, the TGI with HL-60(TB) leukemia was 6.65 µM; with HT29 colon, 3.47 µM; in the assay on KM12 colon, 22 µM; in the assay with LOX IMVI melanoma, 3.07 µM; in the assay with MDA-MB-435 it was 5.28 µM; in the assay on MOLT-4 leukemia, 5.35 µM. The TGI with PC-3 prostate was 4.03 µM; in the assay with SK-MEL-2 melanoma, 10.3 µM; with T-47D breast it was 4.38 µM.
`CC[C@@H](C(=O)[C@@H](C)[C@@H](O)[C@H](C)[C@@H]1O[C@@H]([C@@H](CC)C(=O)N(CC)CC)CC[C@@H]1C)C1O[C@]2(C=CC(=O)[C@]3(CC[C@@](C)([C@H]4CC[C@](O)(CC)[C@H](C)O4)O3)O2)[C@H](C)C[C@@H]1C` (stereo not given in full): the GI50 in the assay on HL-60(TB) leukemia is 2.16 µM; in the assay with HT29 colon it was 2.73 µM; in the assay with KM12 colon it was 1.82 µM; in the assay with LOX IMVI melanoma, 1.58 µM; in the assay with MDA-MB-435, 2.91 µM; with MOLT-4 leukemia, 2.66 µM. Besides, the GI50 was 2.6 µM in the assay with PC-3 prostate, 2.71 µM in the assay with SK-MEL-2 melanoma and 2.59 µM with T-47D breast. The TGI amounted to 4.95 µM in the assay with HL-60(TB) leukemia; 15.6 µM in the assay on HT29 colon; 3.68 µM in the assay with KM12 colon; 3.17 µM in the assay on LOX IMVI melanoma; 9.95 µM in the assay with MDA-MB-435; 8.06 µM in the assay with MOLT-4 leukemia. The results for the TGI in the assay on PC-3 prostate, in the assay on SK-MEL-2 melanoma and with T-47D breast were 24.7 µM, 7.85 µM and 9.44 µM, respectively.
Regarding `N#CSCC1CC(O)(c2ccccc2)CC(c2ccc(F)cc2)O1` (stereo not given), the GI50 in the assay on HT29 colon is 1.97 µM; with KM12 colon, 1.63 µM; in the assay on LOX IMVI melanoma it was 1.7 µM; in the assay on M14 melanoma it was 1.62 µM; in the assay with MDA-MB-435, 1.83 µM; with MOLT-4 leukemia, 0.674 µM. For the same compound, the results for the GI50 with PC-3 prostate, with SK-MEL-2 melanoma and in the assay with T-47D breast were 2.49 µM, 1.66 µM and 1.78 µM, respectively. Besides, the TGI turned out to be 4.19 µM in the assay on HT29 colon; 3.07 µM in the assay on KM12 colon; 3.1 µM in the assay on LOX IMVI melanoma; 3.13 µM with M14 melanoma; 4.08 µM in the assay on MDA-MB-435; 3.51 µM in the assay with MOLT-4 leukemia. Moreover, the TGI worked out at 8.38 µM in the assay with PC-3 prostate, 3.39 µM in the assay with SK-MEL-2 melanoma and 4.98 µM with T-47D breast.
Consider `Cc1c(COc2cc(OCc3cccc(C#N)c3)c(CN3C[C@H](O)C[C@@H]3C(=O)O)cc2Cl)cccc1-c1ccc2c(c1)OCCO2`, for which the GI50 in the assay with HT29 colon is 23.2 µM; in the assay with KM12 colon, 16.1 µM; in the assay with LOX IMVI melanoma, 4.28 µM; in the assay with M14 melanoma it was 13.2 µM; in the assay on MDA-MB-435 it was 17 µM; in the assay with PC-3 prostate it was 2.54 µM. Besides, the GI50 is 18.8 µM with SK-MEL-2 melanoma and 19.8 µM in the assay on T-47D breast. Moreover, the TGI in the assay with HT29 colon was 48.2 µM; with KM12 colon, 30.3 µM; in the assay with LOX IMVI melanoma, 16 µM; with M14 melanoma, 27.1 µM; in the assay with MDA-MB-435, 33.6 µM; with PC-3 prostate, 7.7 µM. Moreover, the TGI in the assay with SK-MEL-2 melanoma stood at 41.3 µM; in the assay with T-47D breast, 47 µM.
As to `COc1cc(OC)c(/C=C/c2cnc3ccccc3n2)c(OC)c1`, the TGI in the assay with HL-60(TB) leukemia, in the assay on HT29 colon, in the assay with KM12 colon, in the assay with LOX IMVI melanoma, with M14 melanoma and with MDA-MB-435 was above 10 µM each time. The TGI in the assay on PC-3 prostate, in the assay with SK-MEL-2 melanoma and in the assay with T-47D breast was above 10 µM throughout.
Turning to `COc1ccc(OC)c(/C=C(/C)[N+](=O)[O-])c1`, the GI50 in the assay on HT29 colon was 2.56 µM; in the assay on KM12 colon, 2.28 µM; with LOX IMVI melanoma, 1.34 µM; with M14 melanoma, 2.14 µM; in the assay with MDA-MB-435, 2.29 µM; with MOLT-4 leukemia it was 3.32 µM. Also, the GI50 with PC-3 prostate was 2.4 µM; with SK-MEL-2 melanoma, 2.16 µM; with T-47D breast, 1.16 µM. The TGI in the assay with HT29 colon was 5.2 µM; with KM12 colon it was 5.94 µM; in the assay on LOX IMVI melanoma, 3.06 µM; with M14 melanoma, 4.24 µM; in the assay on MDA-MB-435 it was 6.8 µM; in the assay on MOLT-4 leukemia, above 100 µM. Moreover, the figures for the TGI with PC-3 prostate, with SK-MEL-2 melanoma and with T-47D breast were 5.63 µM, 4.41 µM and 2.87 µM, respectively.
Regarding `Nc1nc(-c2ccccc2)nc2c1[n+]([O-])c1ccccc1[n+]2[O-]`, the TGI in the assay with HL-60(TB) leukemia, in the assay on HT29 colon, in the assay on KM12 colon, in the assay on LOX IMVI melanoma, with M14 melanoma and with MDA-MB-435 was above 100 µM each time. Besides, the TGI with PC-3 prostate, in the assay on SK-MEL-2 melanoma and in the assay on T-47D breast was above 100 µM each time.
Consider `COc1cc2c3c(n(CCCI)c(=O)c2cc1OC)-c1cc2c(cc1C3=O)OCO2`, for which the GI50 with HL-60(TB) leukemia was 1.08 µM; in the assay on HT29 colon it was 5.46 µM; in the assay on KM12 colon, 7.4 µM; in the assay on M14 melanoma, 3.05 µM; in the assay with MDA-MB-435, 6.06 µM; in the assay on MOLT-4 leukemia it was 0.126 µM. Besides, the GI50 in the assay on PC-3 prostate, in the assay on SK-MEL-2 melanoma and in the assay on T-47D breast was above 100 µM throughout. The TGI in the assay on HL-60(TB) leukemia, in the assay with HT29 colon, with KM12 colon, in the assay on M14 melanoma, with MDA-MB-435 and with MOLT-4 leukemia was above 100 µM each time. The TGI in the assay on PC-3 prostate, in the assay with SK-MEL-2 melanoma and in the assay with T-47D breast was above 100 µM each time.
